Results: the supplement of paper PMC10307832

Legend:
Experiment in all cases: relative viability (nuclei count vs DMSO), 5 days (fraction); higher = more cells survive
[1] = compound: CC(C)CCN1c2nc(Nc3cc(F)c(O)c(F)c3)ncc2N(C)C(=O)C1C [BI-D1870] + CC1(C)CCC(c2ccc(Cl)cc2)=C(CN2CCN(c3ccc(C(=O)NS(=O)(=O)c4ccc(N[C@H](CCN5CCOCC5)CSc5ccccc5)c(S(=O)(=O)C(F)(F)F)c4)cc3)CC2)C1 [Navitoclax] (partner 0.5 µM)
Outline: (§1)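 Relative viability equals treated-well nuclei counts divided by vehicle-well nuclei counts. Counts came from 4× images of lung cancer cell lines grown in 1536-well plates for 5 days after pin-tool dosing on the day after seeding. Dosing used one drug alone or a fixed anchor-drug dose plus five library-drug doses (not always all listed) in √10 steps, and values are medians of duplicate plates.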

[2] = compound: CC(C)CCN1c2nc(Nc3cc(F)c(O)c(F)c3)ncc2N(C)C(=O)C1C [BI-D1870] + CS(=O)(=O)CCNCc1ccc(-c2ccc3ncnc(Nc4ccc(OCc5cccc(F)c5)c(Cl)c4)c3c2)o1 [Lapatinib] (partner 2 µM)
Outline: as §1

[3] = compound: O=c1ncccn1[C@@H]1O[C@H](CO)[C@@H](O)[C@H]1O [Zebularine] + CCNC(=O)c1noc(-c2cc(C(C)C)c(O)cc2O)c1-c1ccc(CN2CCOCC2)cc1 [Luminespib] (partner 0.01 µM)
Outline: as §1

[4] = compound: O=c1ncccn1[C@@H]1O[C@H](CO)[C@@H](O)[C@H]1O [Zebularine] + Cc1nc(Nc2ncc(C(=O)Nc3c(C)cccc3Cl)s2)cc(N2CCN(CCO)CC2)n1 [Dasatinib] (partner 0.075 µM)
Outline: as §1

| Cell Line | relative viability ([1]; first compound 0.04 µM) | relative viability ([1]; first compound 0.1265 µM) | relative viability ([1]; first compound 0.4 µM) | relative viability ([1]; first compound 1.265 µM) | relative viability ([1]; first compound 4 µM) | relative viability ([2]; first compound 0.04 µM) | relative viability ([2]; first compound 0.1265 µM) | relative viability ([2]; first compound 0.4 µM) | relative viability ([2]; first compound 1.265 µM) | relative viability ([2]; first compound 4 µM) | relative viability ([3]; first compound 1 µM) | relative viability ([3]; first compound 3.162 µM) | relative viability ([3]; first compound 10 µM) | relative viability ([3]; first compound 31.62 µM) | relative viability ([3]; first compound 100 µM) | relative viability ([4]; first compound 1 µM) | relative viability ([4]; first compound 3.162 µM) | relative viability ([4]; first compound 10 µM) | relative viability ([4]; first compound 31.62 µM) | relative viability ([4]; first compound 100 µM) |
| --- | --- | --- | --- | --- | --- | --- | --- | --- | --- | --- | --- | --- | --- | --- | --- | --- | --- | --- | --- | --- |
| PC-3 [JPC-3] | 0.812 | 0.739 | 0.743 | 0.809 | 0.734 | 0.455 | 0.425 | 0.463 | 0.52 | 0.385 | 0.79 | 0.667 | 0.553 | 0.466 | 0.493 | 1.05 | 1.05 | 0.61 | 0.979 | 0.79 |
| NCI-H2228 | 0.94 | 0.811 | 0.819 | 0.823 | 0.359 | 1.2 | 0.854 | 0.989 | 0.927 | 0.482 | 0.198 | 0.147 | 0.175 | 0.226 | 0.153 | 0.606 | 0.518 | 0.322 | 0.448 | 0.222 |
| HOP-62 | 1.06 | 1.01 | 0.995 | 1.2 | 1.01 | 1.07 | 1.08 | 0.934 | 1.06 | 0.825 | 0.991 | 0.906 | 0.263 | 0.296 | 0.178 | 0.729 | 0.711 | 0.421 | 0.462 | 0.253 |
| HARA | 1.2 | 1.13 | 1.16 | 1.23 | 1.08 | 0.973 | 0.722 | 0.842 | 0.998 | 0.74 | 0.86 | – | – | 0.833 | 0.445 | 0.219 | – | – | 0.35 | 0.274 |
| NCI-H838 | 1.28 | 1.04 | 1.12 | 1.29 | 1.21 | 1.13 | 0.942 | 1.1 | 1.24 | 1.02 | 0.299 | 0.312 | 0.276 | 0.243 | 0.228 | 0.318 | 0.238 | 0.239 | 0.268 | 0.278 |
| NCI-H1755 | 1.06 | 0.945 | 0.995 | 1.07 | 1.01 | 1.11 | 0.982 | 1.08 | 1.16 | 0.992 | 0.481 | 0.426 | 0.39 | 0.522 | 0.44 | 0.494 | 0.452 | 0.342 | 0.49 | 0.435 |
| NCI-H322M | 1.22 | 1.19 | 1.44 | 1.06 | 1.07 | 0.605 | 0.535 | 0.598 | 0.529 | 0.559 | 0.905 | 0.992 | 0.707 | 0.703 | 0.662 | 0.257 | 0.263 | 0.237 | 0.278 | 0.246 |
| NCI-H3122 | 1 | 0.927 | 1.1 | 0.993 | 1.04 | 1.02 | 0.985 | 0.983 | 1.01 | 0.967 | 0.11 | 0.0829 | – | 0.111 | 0.0803 | 0.981 | 0.79 | – | 0.889 | 0.918 |
